Source: US9884868B2, “TGF-beta inhibitors” (Rigel Pharmaceuticals, Inc., priority 2015, dated 2018)
Like-named read-outs stand apart in the source and are kept apart here.

Biological target: HIS-TGF-βR1 T204D (Homo sapiens (Human), UniProt P36897, T204D)
Test: HTRF probe displacement assay with HIS-TGF-βR1 T204D
[1] = read-out: TGFbr1 IC50, HTRF probe displacement, 1 nM HIS-TGF-βR1 T204D, 1 hour at room temperature

Chain of HIS-TGF-βR1 T204D (P36897 34-503 T204D): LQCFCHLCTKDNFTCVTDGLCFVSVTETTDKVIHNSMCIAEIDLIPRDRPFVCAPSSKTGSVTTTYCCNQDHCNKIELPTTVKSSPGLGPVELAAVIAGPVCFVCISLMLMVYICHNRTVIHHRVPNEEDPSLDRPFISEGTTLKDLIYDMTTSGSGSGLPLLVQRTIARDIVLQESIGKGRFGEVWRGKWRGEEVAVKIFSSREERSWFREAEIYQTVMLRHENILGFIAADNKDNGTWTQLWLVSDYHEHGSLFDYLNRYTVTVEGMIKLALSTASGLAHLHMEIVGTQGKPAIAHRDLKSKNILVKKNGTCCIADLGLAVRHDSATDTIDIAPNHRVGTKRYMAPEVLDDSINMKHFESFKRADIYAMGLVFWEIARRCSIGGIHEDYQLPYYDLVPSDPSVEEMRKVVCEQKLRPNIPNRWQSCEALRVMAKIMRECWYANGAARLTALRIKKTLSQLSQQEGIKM

Structure (SMILES)	IC50 [1] [nM]	IC50 [nM]
Fc1ccc(-c2ncn(CCC(F)(F)F)c2-c2ccc3nccn3c2)cc1Cl [182′, 6-(4-(3-chloro-4-fluorophenyl)-1-(3,3,3-trifluoropropyl)-1H-imidazol-5-yl)imidazo[1,2-a]pyridine]	50.8	
NC(=O)c1cnc2ccc(-c3c(-c4ccc(F)cc4)ncn3CCCO)nn12 [132′, 6-(4-(4-fluorophenyl)-1-(3-hydroxypropyl)-1H-imidazol-5-yl)imidazo[1,2-b]pyridazine-3-carboxamide]	4.7	
N#Cc1cnc2ccc(-c3c(-c4ccc(F)cc4)ncn3C34CC(C3)C4)nn12 [25′, 6-(1-(bicyclo[1.1.1]pentan-1-yl)-4-(4-fluorophenyl)-1H-imidazol-5-yl)imidazo[1,2-b]pyridazine-3-carbonitrile]	2.6	
N#Cc1cnc2ccc(-c3c(-c4ccccc4CO)ncn3CC(F)F)nn12 [253′, 6-(1-(2,2-difluoroethyl)-4-(2-(hydroxymethyl)phenyl)-1H-imidazol-5-yl)imidazo[1,2-b]pyridazine-3-carbonitrile]	7	
N#Cc1cnc2ccc(-c3c(-c4ccc(F)c(F)c4)ncn3CC(F)F)cn12 [226′, 6-(1-(2,2-difluoroethyl)-4-(3,4-difluorophenyl)-1H-imidazol-5-yl)imidazo[1,2-a]pyridine-3-carbonitrile]	73.2	
CC(C)OCCn1cnc(-c2ccc(F)cc2)c1-c1ccc2ncc(C#N)n2n1 [11′, 6-(4-(4-fluorophenyl)-1-(2-isopropoxyethyl)-1H-imidazol-5-yl)imidazo[1,2-b]pyridazine-3-carbonitrile]	3	
N#Cc1cnc2ccc(-c3c(-c4ccc(F)c(Cl)c4)ncn3CCCO)nn12 [38′, 6-(4-(3-chloro-4-fluorophenyl)-1-(3-hydroxypropyl)-1H-imidazol-5-yl)imidazo[1,2-b]pyridazine-3-carbonitrile]	1	
CCC(O)Cn1cnc(-c2ccc(F)cc2)c1-c1ccc2ncc(C#N)n2c1 (stereo not drawn) [70′, 6-(4-(4-fluorophenyl)-1-(2-hydroxybutyl)-1H-imidazol-5-yl)imidazo[1,2-a]pyridine-3-carbonitrile]	123	

The next lines start with the values.

IC50 [1] [nM]	IC50 [nM]	Structure (SMILES)
	8.1	N#Cc1cnc2ccc(-c3c(-c4ccc(F)cc4F)ncn3CC(F)F)cn12 [227′, 6-(1-(2,2-difluoroethyl)-4-(2,4-difluorophenyl)-1H-imidazol-5-yl)imidazo[1,2-a]pyridine-3-carbonitrile]
8.4		NC(=O)c1cnc2ccc(-c3c(-c4ccc(F)cc4)ncn3C(CO)CO)cn12 [171′, 6-(1-(1,3-dihydroxypropan-2-yl)-4-(4-fluorophenyl)-1H-imidazol-5-yl)imidazo[1,2-a]pyridine-3-carboxamide]
86.2		N#Cc1cnc2ccc(-c3c(-c4ccc(F)cc4)ncn3C3CNC3)nn12 [190C′, 6-(1-(azetidin-3-yl)-4-(4-fluorophenyl)-1H-imidazol-5-yl)imidazo[1,2-b]pyridazin-3-carbonitrile]
94.7		N#Cc1cnc2ccc(-c3c(-c4ccc(F)cc4)ncn3C3CCCC3)cn12 [86′, 6-(1-cyclopentyl-4-(4-fluorophenyl)-1H-imidazol-5-yl)imidazo[1,2-a]pyridine-3-carbonitrile]
2.9		N#Cc1cnc2ccc(-c3c(-c4ccccc4)ncn3CC(F)F)nn12 [237′, 6-(1-(2,2-difluoroethyl)-4-phenyl-1H-imidazol-5-yl)imidazo[1,2-b]pyridazine-3-carbonitrile]
2.3		CC(CCO)n1cnc(-c2ccc(F)cc2)c1-c1ccc2ncc(C(N)=O)n2c1 (stereo not drawn) [154′, 6-(4-(4-fluorophenyl)-1-(4-hydroxybutan-2-yl)-1H-imidazol-5-yl)imidazo[1,2-a]pyridine-3-carboxamide]
13.8		N#Cc1cnc2ccc(-c3c(-c4ccc(F)cc4)nc4n3CCC4)cn12 [283B′, 6-(2-(4-fluorophenyl)-6,7-dihydro-5H-pyrrolo[1,2-a]imidazol-3-yl)imidazo[1,2-a]pyridine-3-carbonitrile]
